In ChEMBL document CHEMBL3352657 (J Med Chem, 2014):
Calls of active or inactive are those of the source. The rule behind the calls is not given here.

Key:
[1] = biological target: T1, Neurotensin receptor type 2 (Rattus norvegicus, UniProt Q63384); experiment: Displacement of [125I]neurotensin from rat NTS2 receptor expressed in CHO-K1 cells by competitive binding assay; type: cell-based
T1 sequence (Q63384 whole entry): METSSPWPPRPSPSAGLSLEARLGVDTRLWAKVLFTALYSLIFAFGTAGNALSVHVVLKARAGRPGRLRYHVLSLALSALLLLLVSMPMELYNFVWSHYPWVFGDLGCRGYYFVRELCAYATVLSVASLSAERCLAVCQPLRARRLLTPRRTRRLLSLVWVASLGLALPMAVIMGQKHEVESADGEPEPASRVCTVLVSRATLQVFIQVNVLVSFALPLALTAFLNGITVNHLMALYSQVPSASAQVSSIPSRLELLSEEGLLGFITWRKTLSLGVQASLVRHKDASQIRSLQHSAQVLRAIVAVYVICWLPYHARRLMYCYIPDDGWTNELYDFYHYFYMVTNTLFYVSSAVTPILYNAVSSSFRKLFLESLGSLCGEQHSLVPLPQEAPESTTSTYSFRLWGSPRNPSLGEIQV

[2] = biological target: Neurotensin receptor type 1 (Rattus norvegicus, UniProt P20789); experiment: Displacement of [125I]neurotensin from rat NTS1 receptor expressed in CHO-K1 cells by competitive binding assay; type: cell-based
Chain of Neurotensin receptor type 1 (P20789 whole entry): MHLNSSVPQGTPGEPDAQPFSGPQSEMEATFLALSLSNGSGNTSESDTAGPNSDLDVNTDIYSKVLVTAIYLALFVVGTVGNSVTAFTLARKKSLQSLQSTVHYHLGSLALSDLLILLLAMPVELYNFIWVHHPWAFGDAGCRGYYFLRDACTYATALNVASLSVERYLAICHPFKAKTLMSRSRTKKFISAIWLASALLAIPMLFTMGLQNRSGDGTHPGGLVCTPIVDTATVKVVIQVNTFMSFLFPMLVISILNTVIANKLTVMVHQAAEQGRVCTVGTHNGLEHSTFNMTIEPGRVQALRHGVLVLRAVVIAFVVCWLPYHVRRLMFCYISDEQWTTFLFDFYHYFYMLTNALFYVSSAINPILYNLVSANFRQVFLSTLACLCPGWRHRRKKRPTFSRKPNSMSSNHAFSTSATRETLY

[3] = biological target: T1, Neurotensin receptor type 2; experiment: Agonist activity at rat NTS2 receptor expressed in CHO-K1 cells assessed as calcium mobilization by FLIPR assay; type: functional, cell-based
[4] = biological target: T1, Neurotensin receptor type 2; experiment: Antagonist activity at rat NTS2 receptor expressed in CHO-K1 cells assessed as inhibition of SR142948a-induced calcium mobilization by FLIPR assay; type: functional, cell-based
[5] = biological target: Neurotensin receptor type 1 (Rattus norvegicus) (UniProt P20789); experiment: Antagonist activity at rat NTS1 receptor expressed in CHO-K1 cells assessed as inhibition of […]-induced calcium mobilization by FLIPR assay; type: functional, cell-based
Chain of Neurotensin receptor type 1 (Rattus norvegicus) (P20789 whole entry): as above

[6] = biological target: Neurotensin receptor type 1 (Rattus norvegicus) (UniProt P20789); experiment: Agonist activity at rat NTS1 receptor expressed in CHO-K1 cells assessed as calcium mobilization by FLIPR assay; type: functional, cell-based

Structure (SMILES)	Ki [1] [nM]	Ki [2] [nM]	EC50 ([3]; read-out: EC50) [nM]	IC50 [4] [nM]	EC50 ([3]; cho-k1)	inhibition [5]	Activity [6]
COc1cccc(OC)c1-c1cc(C(=O)NC2(C(=O)O)C3CC4CC(C3)CC2C4)nn1-c1ccc(C(=O)N(C)CCCN(C)C)cc1C(C)C (stereo not drawn)	5.8	1.4	22	–	–	–	–
Cc1ccc(S(=O)(=O)Nc2ccc3c(c2)c(C(=O)C(F)(F)F)cn3CC(=O)N[C@@H](CC(C)C)C(=O)O)cc1	202	> 30000	–	38	Not Active	–	–
Cc1ccc(S(=O)(=O)Nc2ccc3c(ccn3CC(=O)N[C@@H](CC(C)C)C(=O)O)c2)cc1	1500	> 30000	–	3320	Not Active	inactive	inactive
